{"source": "patent US11136597B2", "about": "“Compositions for enhancing targeted gene editing and methods of use thereof” (Yale University, priority 2016, dated 2021)", "key": {"[1]": {"tested_on": "skin fibroblasts from β-globin/GFP mice, IVS2-654 (C→T) mutation", "test": "GFP/beta globin gene correction assay in mouse skin fibroblasts with DNA repair or other small molecule inhibitors", "assay_type": "cell-based", "conditions": "inhibitor given 48 hours before tcPNA1 + donor DNA nanoparticles, flow cytometry 72 hours later", "method": "Skin fibroblasts were isolated from the β-globin/GFP mice (intron 2 of human β-globin inserted with in the GFP coding regions) and grown in culture in DMEM medium plus 10% FCS. The intron contains the IVS2-654 (C→T) mutation. The gene correction assay is illustrated in FIG. 5A.\nThe fibroblasts were treated ex vivo with nanoparticles containing tcPNA1+ Donor DNA and 72 hours later flow cytometry analysis was performed to quantify the % gene correction based on the frequency of GFP positive cells. In some cases, DNA repair inhibitors or other small molecule inhibitors were given 48 hours before the nanoparticle treatment."}, "[2]": {"tested_on": "homology-dependent repair (HDR)", "test": "Luciferase reporter gene assay for homology-dependent repair (HDR) in CD117+ cells", "assay_type": "cell-based, mouse", "conditions": "CD117+ cells", "method": "An inactivating I-Sce1 site was cloned 56 amino acids into the firefly luciferase open reading frame under the control of a CMV promoter. The reporter construct also contains a promoterless luciferase gene used as a template for homologous recombination. A double-strand break in the luciferase reporter is created by in vitro digestion with the I-Sce I restriction enzyme (NEB #R0694L). Plasmid DNA was digested with I-Sce 1 for 1 hour at 37° C. at a ratio of 10 units enzyme to 1 μg DNA and then the enzyme was inactivated at 65° C. for 20 minutes. The linearization of the plasmid was confirmed for each digestion via gel electrophoresis and the linear plasmid was purified using the Qiagen Qiaquick spin columns. After separation CD117+ and CD117-cells from bone marrow of β-globin/GFP transgenic mice, cells were transfected using the Lonza 2b Nucleofector Device. 5×10^5 cells were transfected with 1 μg of either the luciferase reporter vector or a positive control firefly luciferase expression vector, along with 50 ng of a renilla luciferase expression plasmid as a transfection efficiency control. All transfections were performed in triplicate. After transfection the cells were plated at a density of 5×10^5 cells/ml in 12-well plates. After 24 hours incubation post transfection, luciferase activity was measured using the Promega Dual Luciferase Assay Kit. In each sample firefly luciferase activity was normalized to the renilla luciferase transfection control. Reporter reactivation was calculated as a ratio of normalized firefly luciferase activity in the cells transfected with the reporter plasmid to the positive control.\nTo test whether the above increases in DNA repair gene expression could be correlated with functional differences in DNA repair, a luciferase-based assay was used to quantify repair of DNA double-strand breaks (DSBs) by HDR. In this assay, repair of a DSB in a reporter plasmid via intramolecular homologous recombination creates (“reactivates”) a functional luciferase gene (FIG. 2H), and so the assay provides a measure of HDR capacity (FIG. 2J)."}, "[3]": {"tested_on": "CD117+ cells from β-globin/GFP transgenic mice", "test": "Ex vivo gene editing in pre-sorted CD117+ cells with or without SCF or c-Kit pathway kinase inhibitors", "assay_type": "cell-based, mouse", "conditions": "for gene editing frequency in pre-sorted CD117+ cells in presence of kinase inhibitor: γtcPNA4/donor DNA NPs plus inhibitor: dasatinib 200 nM, MEK162 1.0 μM, BKM120 3.0 μM", "method": "For CD117+ cell experiments, Iscove's Modified Dulbecco's Media (IMDM) media containing insulin (10 ng/ml), FCS (10%) and erythropoietin (1 U/ml) was used to culture CD117+ cells after isolation using magnetic separation. Where indicated, 3 μg/ml of SCF (Recombinant murine SCF, catalog #250-03, PeproTech, Rocky Hill, N.J.;) was added prior to nanoparticle treatment. 2 mg/ml of NPs were used to treat 50,000-100,000 CD117+ cells in triplicate for 48 hrs in the above media, followed by flow cytometry analyses as above. Inhibitors were used at concentrations of 200 nM (dasatinib), 1.0 μM (MEK162) and 3.0 μM (BKM120). Dasatanib was obtained from Cayman Chemical (Ann Arbor, Mich.; item #11498) and dissolved according to manufacturer's protocol. MEK162 and BKM120 were obtained from Dr. Harriet Kluger, Yale University.\n(§1) BD Bioscience kit catalog #558451 (BDImag™ Hematopoietic Progenitor Stem Cell Enrichment Set—DM) was used to isolate CD117 cells. Enrichment for CD117 was confirmed by flow cytometry. CD117+ enriched cells were labeled with CD117-APC (BD Pharmingen™ catalog #558451) antibody. Cells were co-labelled with control IgG antibody (BD Pharmingen™ catalog #555746) for gating purposes. To quantify GFP expression, after CD117 co-labelling, flow cytometry was performed using FACScaliburS by resuspending cells in PBS/1% FBS where green fluorescent cells are measured in the Fl1 channel and APC stained cells are in the Fl4 channel Antibodies for other markers were Ter119 (BD Pharmingen™ catalog #561033) and CD45 APC (BD Pharmingen™ catalog #561018).\nTo explore the mechanism of the increased gene editing in CD117+ cells, the requirement of c-Kit-dependent signaling for elevated gene correction or whether CD117 simply serves as a marker for the increased susceptibility to gene editing was distinguished. To do this, γtcPNA4/donor DNA NP-mediated gene editing was assayed in pre-sorted CD117+ cells in the presence or absence of selected kinase inhibitors (FIG. 2D). Dasatinib, which inhibits the c-Kit kinase in addition to the BCR/Abl and Src kinases, reduced the gene editing from 7% to 2.0%."}, "[4]": {"tested_on": "120 bp double-stranded DNA fragments containing β-globin sequences", "test": "Gel mobility shift assay of SCD tcPNAs", "assay_type": "binding, human", "conditions": "physiological conditions", "source_text": "Each 120 bp dsDNA contained the binding site for the respective tcPNAs."}, "[5]": {"tested_on": "IVS2-654 (C→T) mutation within the β-globin/GFP fusion gene", "test": "Ex vivo gene correction (% GFP+ cells, flow cytometry) in bone marrow cells from β-globin/GFP transgenic mice", "assay_type": "cell-based, mouse", "conditions": "total bone marrow cells, 2 mg/ml PLGA NPs with donor DNA, 48 hr", "source_text": "To assay for gene editing in a robust and quantitative manner, a transgenic mouse model was utilized with a β-globin/GFP fusion transgene of human β-globin intron 2 carrying a thalassemia-associated IVS2-654 (C→T) mutation embedded within the GFP coding sequence, resulting in incorrect splicing of β-globin/GFP mRNA and lack of GFP expression (Sazani, et al., Nat. Biotechnol., 20:1228-1233 (2002)). PNA-mediated triplex-formation induces DNA repair and recombination of the genomic site with a 60-nucleotide sense donor DNA that is homologous to a portion of the β-globin intron 2 sequence except for providing a wild-type nucleotide at the IVS2-654 position. Via recombination, the splice-site mutation is corrected and expression of functional GFP occurs (FIG. 1A) (McNeer, et al., Gene Therapy, 20:658-669 (2013); Bahal, et al., Curr. Gene Ther., 14:331-342 (2014)). […]\nas §1, with “Enrichment for CD117 was confirmed by flow cytometry. CD117+ enriched cells were labeled with CD117-APC (BD Pharmingen™ catalog #558451) antibody. Cells were co-labelled with control IgG antibody (BD Pharmingen™ catalog #555746) for gating purposes.” left out"}, "[6]": {"tested_on": "120-bp DNA duplexes containing the respective target sequences (β-globin intron 2)", "test": "DNA binding gel shift assay of tcPNAs", "set-up": "species or system human", "conditions": "120-bp dsDNA, 37 C, 10 mM NaPi pH 7.4", "method": "For gel electrophoresis, synthetic 120 bp dsDNA targets were incubated with indicated oligomers at 37 C in low ionic strength buffer (10 mM NaPi, pH 7.4). The samples were separated on 10% non-denaturing polyacrylamide gels in 1×TBE buffer. The gels were run at […] for 1.5 hr. After electrophoresis, the gels were stained with 1×SYBR-Gold (catalog #S11494, Invitrogen) for 10 min, washed 2× with 1×TBE buffer, and then imaged using a gel documentation system (BioDoc-It System). The images were then inverted using Adobe Photoshop 6.0."}}, "data": [{"molecule": "O=C(c1cc(Cc2n[nH]c(=O)c3ccccc23)ccc1F)N1CCN(C(=O)C2CC2)CC1", "note": "[AZD-2281]", "values": [{"measurement": "effect on gene editing (% gene correction, GFP positive cells)", "setting": "[1]", "value": "boosts gene editing"}]}, {"molecule": "Nc1cc(C(F)(F)F)c(-c2cc(N3CCOCC3)nc(N3CCOCC3)n2)cn1", "note": "[BKM120, reference compound]", "values": [{"measurement": "HDR repair activity (luciferase reactivation) in CD117+ cells", "setting": "[2]", "value": "diminished"}, {"measurement": "gene editing frequency in pre-sorted CD117+ cells in presence of kinase inhibitor", "setting": "[3]", "value": 4.1, "unit": "%"}]}, {"molecule": "Cc1nc(Nc2ncc(C(=O)Nc3c(C)cccc3Cl)s2)cc(N2CCN(CCO)CC2)n1", "note": "[Dasatinib]", "values": [{"measurement": "fold reduction of gene editing frequency", "setting": "[3]; CD117+ cells, inhibition of c-Kit kinase", "value": "~4", "unit": "fold"}, {"measurement": "gene editing frequency in pre-sorted CD117+ cells in presence of kinase inhibitor", "setting": "[3]", "value": 2.0, "unit": "%"}]}, {"molecule": "Cn1cnc2c(F)c(Nc3ccc(Br)cc3F)c(C(=O)NOCCO)cc21", "note": "[MEK162, reference compound]", "values": [{"measurement": "HDR repair activity (luciferase reactivation) in CD117+ cells", "setting": "[2]", "value": "diminished"}, {"measurement": "gene editing frequency in pre-sorted CD117+ cells in presence of kinase inhibitor", "setting": "[3]", "value": 2.6, "unit": "%"}]}, {"molecule": "CC(C)c1cc(-c2n[nH]c(=O)n2-c2ccc3c(ccn3C)c2)c(O)cc1O", "note": "[STA-9090/Ganetespib]", "values": [{"measurement": "effect on gene editing (% gene correction, GFP positive cells)", "setting": "[1]", "value": "enhances gene editing"}]}, {"molecule": "C[C@@]1(CO)[C@H](O)CC[C@@]2(C)[C@H]1CC[C@H]1C[C@@H]3C[C@@]12CC[C@]3(O)CO", "note": "[aphidicolin]", "values": [{"measurement": "effect on gene editing (% gene correction, GFP positive cells)", "setting": "[1]", "value": "boosts gene editing"}]}, {"molecule": "H-KKK-JJTJTTJ-OOO-CTTCTCCACAGGAGTCAG-KKK-NH2 (NNTNTTNCTTCTCCACAGGAGTCAG; listed as DNA, chemistry not fully specified) [SCD-tcPNA 1]", "values": [{"measurement": "binding to 120 bp double-stranded DNA fragments (gel mobility shift)", "setting": "[4]", "value": "binding"}]}, {"molecule": "H-KKK-JTTTJTTTJTJT-OOO-TCTCTTTCTTTCAGGGCA-KKK-NH2 (NTTTNTTTNTNTTCTCTTTCTTTCAGGGCA; miniPEG γ units, lysine caps, amide, chemistry not fully specified) [γtcPNA4]", "values": [{"measurement": "genome modification frequency (% GFP+ cells)", "setting": "[5]", "value": 1.62, "unit": "%"}]}, {"molecule": "H-KKK-TJTJTTJT-OOO-TCTTCTCTGTCTCCACAT-KKK-NH2 (TNTNTTNTTCTTCTCTGTCTCCACAT; listed as DNA, chemistry not fully specified) [SCD-tcPNA 3]", "values": [{"measurement": "binding to 120 bp double-stranded DNA fragments (gel mobility shift)", "setting": "[4]", "value": "binding"}]}, {"molecule": "H-KKK-TTJJTJT-OOO-TCTCCTTAAACCTGTCTT-KKK-NH2 (TTNNTNTTCTCCTTAAACCTGTCTT; listed as DNA, chemistry not fully specified) [SCD-tcPNA 2]", "values": [{"measurement": "binding to 120 bp double-stranded DNA fragments (gel mobility shift)", "setting": "[4]", "value": "binding"}]}, {"molecule": "H-KKK-TTJTTTJTTJTJ-OOO-CTCTTCTTTCTTGACAGG-KKK-NH2 (TTNTTTNTTNTNCTCTTCTTTCTTGACAGG; lysine caps, linker, C-terminal amide, chemistry not fully specified) [γtcPNA4-Scr, scrambled version of γtcPNA4 with the same base composition]", "values": [{"measurement": "genome modification frequency (% GFP+ cells)", "setting": "[5]", "value": "no modification"}, {"measurement": "binding to target site in duplex DNA (gel shift)", "setting": "[6]", "value": "No binding"}]}]}
